{"source": "patent US12012597B2", "about": "“Cancer treatment using siRNA to modulate expression of PRDM2/RIZ protein” (ARIZ Precision Medicine, Inc., priority 2020, dated 2024)", "key": {"[1]": {"tested_on": "HCT116 colon cancer cells", "test": "Cell viability after siRNA transfection with or without 5-fluorouracil", "conditions": "5-fluorouracil 25 μM added one day after transfection, after four days, relative to untreated cells, FIG. 4", "protocol": "Where indicated, 5-fluorouracil (25 μM) was added one day after transfection. Media (with 5-flurouracil where indicated) was changed after two days, and after four days, percent cell viability was determined, relative to untreated cells."}, "A549 lung cancer cells": {"tested_on": "A549 lung cancer cells", "test": "MTS cell viability assay after siRNA transfection", "format": "cell-based, human", "conditions": "100 nM siRNA; for Viability of the A549 lung cancer cells (change): DharmaFECT 1, after four days, FIG. 2; for relative cell viability: single exposure, after four days, relative to untreated cells"}, "RIZ1 mRNA [2]": {"tested_on": "RIZ1 mRNA", "test": "RIZ1 mRNA level in HCT116 cells after siRNA", "format": "cell-based, human", "conditions": "FIG. 5", "method": "(§1) RIZ1 and RIZ2 mRNA levels were determined in control and siRNA-transfected cells using qPCR. RNA was extracted from cells 48 hours after transfection, and mRNA expression levels were detected using PRDM isoform A and PRDM isoform C specific PCR primers. RIZ mRNA expression levels were determined relative to GAPDH mRNA expression levels. Scrambled siRNA was used a negative control, and Tox (Transfection control siRNA, commercially available) was used a positive control."}, "RIZ2 mRNA [3]": {"tested_on": "RIZ2 mRNA", "test": "RIZ2 mRNA level in HCT116 cells after siRNA", "format": "cell-based, human", "conditions": "FIG. 5", "method": "as §1"}, "RIZ2 mRNA [4]": {"tested_on": "RIZ2 mRNA", "test": "qPCR of RIZ2 mRNA in siRNA-transfected A549 cells", "format": "cell-based, human", "method": "as §1"}, "RIZ1 mRNA [5]": {"tested_on": "RIZ1 mRNA", "test": "qPCR of RIZ1 mRNA in siRNA-transfected A549 cells", "format": "cell-based, human", "conditions": "qPCR relative to GAPDH mRNA", "method": "as §1"}, "[6]": {"tested_on": "KMS-11 multiple myeloma cell line", "test": "Viability of multiple myeloma cells after siRNA", "format": "cell-based", "conditions": "comparable to the Tox positive control, FIG. 8", "source_text": "In this example, the effect of siRNA ARIZ-011 was further tested on a multiple myeloma cell line, KMS-11. KMS-11 cell line was obtained from commercially available sources, and was originally derived from […] multiple myeloma patient's cells. These cells have characteristics of plasma cells."}}, "note": "Entries after “also recorded” stand apart in the source; their conditions may differ. d = 2'-deoxy (DNA); r = 2'-OH (RNA)"}
{"compound": "O=c1[nH]cc(F)c(=O)[nH]1", "note": "[5-fluorouracil]", "values": [{"measurement": "cytotoxicity at 25 µM", "setting": "[1]; Homo sapiens, HCT-116, read-out: decreased cell viability (killing) of HCT116 colon cancer cells, siRNA 100 nM", "result": "72 to 74", "unit": "%"}, {"measurement": "decreased cell viability (killing) of HCT116 colon cancer cells", "setting": "[1]; siRNA 100 nM", "result": 72, "unit": "%"}]}
{"compound": "ARIZ-015: Double-stranded siRNA, sense SEQ ID NO: 5, antisense SEQ ID NO: 15, complementary to last 19 bases at 3′ end of RIZ2 mRNA (sense GGACUUCAGGAACUUCCUGTT; antisense CAGGAAGUUCCUGAAGUCCTT; sugars from the 5' end r19 d2, backbone and T or U not given here)", "values": [{"measurement": "Viability of the A549 lung cancer cells (change)", "setting": "A549 lung cancer cells", "result": "decreased"}, {"measurement": "relative cell viability", "setting": "A549 lung cancer cells", "result": 70, "unit": "%"}]}
{"compound": "ARIZ-012: Double-stranded siRNA, sense SEQ ID NO: 2, antisense SEQ ID NO: 12, complementary to sequences shared by RIZ1 and RIZ2 mRNA (sense GUGUAGUGCUGUAAAGAAATT; antisense UUUCUUUACAGCACUACACTT; sugars from the 5' end r19 d2, backbone and T or U not given here)", "values": [{"measurement": "Viability of the A549 lung cancer cells (change)", "setting": "A549 lung cancer cells", "result": "decreased"}]}
{"compound": "ARIZ-011: Unmodified double-stranded siRNA, sense SEQ ID NO: 1, antisense SEQ ID NO: 10, complementary to both RIZ1 and RIZ2 mRNA (sense GGGAGAGAUGAGAGAGAAATT; antisense UUUCUCUCUCAUCUCUCCCTT; RNA, all phosphodiester, T or U not given here)", "values": [{"measurement": "RIZ1 mRNA (change)", "setting": "RIZ1 mRNA [2]", "result": "concurrent increase"}, {"measurement": "Viability of the A549 lung cancer cells (change)", "setting": "A549 lung cancer cells", "result": "decreased"}, {"measurement": "relative cell viability", "setting": "A549 lung cancer cells", "result": 30, "unit": "%"}, {"measurement": "expression level of RIZ2 (change)", "setting": "RIZ2 mRNA [3]", "result": "selectively decreased"}, {"measurement": "decrease in RIZ2 mRNA", "setting": "RIZ2 mRNA [4]; 48 hours after transfection, relative to GAPDH mRNA, FIG. 3", "result": "~75", "unit": "%"}, {"measurement": "RIZ2 mRNA level (change)", "setting": "RIZ2 mRNA [4]; qPCR relative to GAPDH mRNA", "result": "knockdown"}, {"measurement": "RIZ1 mRNA level (change)", "setting": "RIZ1 mRNA [5]", "result": "simultaneous increase in RIZ1 mRNA; also recorded: upregulated expression"}, {"measurement": "KMS-11 cell death in culture", "setting": "[6]", "result": "about 80%"}]}
